Laboratory results taken from patent publication US4119722A, “Method for control of fungi using 4-halo-5-aryl-1,2,3,-dithiazoles” (Chevron Research Company, priority 1977, dated 1978).

Tests used:
[1] = system: Phytophthora infestans; test: whole plant or invertebrate; type: in vivo; details: in Solanum lycopersicum, 168 h, read-out: Tomato Late Blight, % Control
[2] = system: Alternaria solani; test: Tomato Early Blight control; type: in vivo; details: 250-ppm spray, tomato seedlings, inoculated 1 day later
Description: Compounds of the invention were tested for the control of the Tomato Early Blight organism, Alternaria solani conidia. […] The tomato plans were sprayed with a 250-ppm solution of the test compound in an acetone-and-water solution containing a small amount of a non-ionic emulsifier. […] Percent disease control was based on the percent disease development on untreated check plants.

[3] = system: Aspergillus niger; test: Mycelia Inhibition; type: cell-based; details: 25° C., 24 hours
Description: (§1) The compounds of the present invention were evaluated for fungicidal effectiveness by means of a mycelial inhibition test. This test is designed to measure the fungitoxic acitvity of fungicidal chemicals in terms of their degree of inhibition of mycelium growth. Each compound to be tested was dissolved in acetone to 500 ppm concentration. Paper strips were innoculated with the particular mycelium growth by covering the paper with a potato dextrose broth culture of mycelial suspension. The innoculated papers were then placed on potato dextrose agar plates and sprayed by means of a micro sprayer with the fungicidal solution. The treated paper strips were incubated at 25° C. and data is taken after 24 hours. Fungicidal activities are measured by a zone of inhibited mycelial growth from the center of the paper strip. The effectiveness of the compounds tested for fungicidal activity is reported in Table VI in terms of the microgram/cm^2 for 99% control of the fungus.

[4] = system: Botrytis cinerea; test: Mycelia Inhibition; type: cell-based; details: 25° C., 24 hours
Description: as §1

[5] = system: Fusarium moniloforma; test: Mycelia Inhibition; type: cell-based; details: 25° C., 24 hours
Description: as §1

[6] = system: Rhizoctonia solani; test: Mycelia Inhibition; type: cell-based; details: 25° C., 24 hours
Description: as §1

[7] = system: Crabgrass (Digitaria sanguinalis); test: Post-emergent herbicidal test; type: in vivo; details: post-emergence, 504 h, 33 mcg/cm^2, 3 weeks, scale 0 (no phytotoxicity) to 100 (complete kill), read-out: Herbicidal Effectiveness (C)
Description: (§2) Post-emergent herbicidal tests with representative compounds of this invention were made using the following method.
(§3) An acetone solution of the test compound was prepared by mixing 750 mg of the compound, 220 mg of a nonionic surfactant and 25 ml of acetone. This solution was added to approximately 125 ml of water containing 156 mg of surfactant.
(§4) This test solution was uniformly sprayed on 2 similar pots of 24-day-old plants (approximately 15 to 25 plants per pot) at a dose of 33 mcg/cm^2. After the plants had dried, they were placed in a greenhouse and then watered intermittently at their bases, as needed. The plants were observed periodically for phytotoxic effects and physiological and morphological responses to the treatment. After 3 weeks, the herbicidal effectiveness of the compound was rated based on these observations. A 0-to-100 scale was used, 0 representing no phytotoxicity and 100 representing complete kill.

[8] = system: Lambsquarter (Chenopodium album); test: Post-emergent herbicidal test; type: in vivo; details: post-emergence, 504 h, 33 mcg/cm^2, 3 weeks, scale 0 (no phytotoxicity) to 100 (complete kill), read-out: Herbicidal Effectiveness (P)
Description: as §2, §3, §4

[9] = system: Mustard (Brassica arvensis); test: Post-emergent herbicidal test; type: in vivo; details: post-emergence, 504 h, 33 mcg/cm^2, 3 weeks, scale 0 (no phytotoxicity) to 100 (complete kill), read-out: Herbicidal Effectiveness (L)
Description: as §2, §3, §4

[10] = system: Pigweed (Amaranthus retroflexus); test: Post-emergent herbicidal test; type: in vivo; details: post-emergence, 504 h, 33 mcg/cm^2, 3 weeks, scale 0 (no phytotoxicity) to 100 (complete kill), read-out: Herbicidal Effectiveness
Description: as §2, §3, §4

[11] = system: Watergrass (Echinochloa Crusgalli); test: Post-emergent herbicidal test; type: in vivo; details: Echinochloa crus-galli, post-emergence, 504 h, 33 mcg/cm^2, 3 weeks, scale 0 (no phytotoxicity) to 100 (complete kill), read-out: Herbicidal Effectiveness (W)
Description: as §2, §3, §4

[12] = system: Wild Oats (Avena fatua); test: Post-emergent herbicidal test; type: in vivo; details: post-emergence, 504 h, 33 mcg/cm^2, 3 weeks, scale 0 (no phytotoxicity) to 100 (complete kill), read-out: Herbicidal Effectiveness (O)
Description: as §2, §3, §4

[13] = system: two spotted-mites (Tetramuchus urticae); test: Mite control test, adult mites; type: in vivo; details: 40-ppm leaf dip, adult mortality one day after treatment; 1440 min
Description: (§5) Compounds of the invention were tested for the control mites and mite eggs by the following procedure. Pinto bean leaves were invested with two spotted-mites (Tetramuchus urticae). The mites were then allowed to lay eggs on the leaves. After 48 hours, the leaves were dipped into a water/acetone solution containing a small amount of a non-ionic surfactant and 40-ppm of the test compound. The treated leaves were then maintained at 85° F. One day after treatment, the mortality of adult mites was determined, and 7 days after treatment, the egg mortality (non-hatching eggs) was determined.

[14] = system: mite eggs (Tetramuchus urticae); test: Mite control test, mite eggs; type: in vivo; details: 40-ppm leaf dip, egg mortality (non-hatching eggs) 7 days after treatment
Description: as §5

[15] = system: Erysiphe polygoni; test: Powdery Mildew control on bean seedlings; type: in vivo; details: 250-ppm spray, about 10 days
Text: The powdery mildew test was made using bean seedlings (var. Bountiful) with well-developed primary leaves. The pathogen was Erysiphe polygoni. The bean seedlings were sprayed with a 250-ppm solution of the test compound in an acetone-water mixture containing a nonionic emulsifer. The treated plants were inoculated one day after spray application of the test compound with the pathogen. […] The rate of infection on the leaves was made after about 10 days. The percent disease control provided by a given test compound was based on the disease reduction relative to untreated check plants.

[16] = system: Septoria apii; type: in vivo; details: sprayed celery plants; concentration not given
[17] = system: Botrytis cinerea; test: Botrytis cinerea control on detached horsebean leaves; type: in vivo; details: 40-ppm solution, dipped horsebean leaves, 3 to 5 days, 23.5° C
Description: The leaves were dipped into a 40-ppm solution of the test compound in acetone and water containing a small amount of a nonionic emulsifier, then taken out and placed in a petri plate lined with two pieces of filter paper. The leaves were allowed to dry while the filter paper was kept moist by adding water as required. The treated leaves were then inoculated with the spores of Botrytis cinerea fungus grown on potato dextrose agar. The plate was covered after inoculation and kept at 23.5° C. The filter-paper lining of the plate was kept saturated with water throughout the test. The rate of disease incidence was determined in 3 to 5 days, when the disease symptoms were fully evident on non-treated check leaves. The percentage disease control provided by the test compound was calculated as the percentage disease reduction based on the non-treated check leaves.

Cc1ccc(N=c2ssnc2Cl)c(C)c1 [Compound 13]
pest or weed control at 250 µg/mL [1]: 63% | Tomato Early Blight, % Control [2]: 44% | Mycelia Inhibition, for 99% control (A) [3]: 1.1 micrograms/cm^2 | Mycelia Inhibition, for 99% control (B) [4]: > 1.7 micrograms/cm^2 | Mycelia Inhibition, for 99% control (F) [5]: > 1.7 micrograms/cm^2 | Mycelia Inhibition, for 99% control (R) [6]: > 1.7 micrograms/cm^2 | pest or weed control at 33 µg/cm2 [7]: 0% | pest or weed control at 33 µg/cm2 [8]: 35% | pest or weed control at 33 µg/cm2 [9]: 50% | pest or weed control at 33 µg/cm2 [10]: 35% | pest or weed control at 33 µg/cm2 [11]: 0% | pest or weed control at 33 µg/cm2 [12]: 0% | Mite Control, % [13]: 0% | Mite Eggs Control, % [14]: 30%

Clc1cc(Cl)cc(N=c2ssnc2Cl)c1 [Compound 3]
Powdery Mildew % Control [15]: 76% | Mycelia Inhibition, for 99% control (A) [3]: > 1.7 micrograms/cm^2 | Mycelia Inhibition, for 99% control (F) [5]: > 1.7 micrograms/cm^2 | Mycelia Inhibition, for 99% control (R) [6]: 0.98 micrograms/cm^2 | pest or weed control at 33 µg/cm2 [7]: 55% | pest or weed control at 33 µg/cm2 [8]: 100% | pest or weed control at 33 µg/cm2 [9]: 100% | pest or weed control at 33 µg/cm2 [10]: 100% | pest or weed control at 33 µg/cm2 [11]: 85% | pest or weed control at 33 µg/cm2 [12]: 35% | Mite Control, % [13]: 90% | Mite Eggs Control, % [14]: 85%

Clc1ccc(N=c2ssnc2Cl)c(Cl)c1 [Compound 6]
Tomato Early Blight, % Control [2]: 56% | pest or weed control at 33 µg/cm2 [7]: 35% | pest or weed control at 33 µg/cm2 [8]: 95% | pest or weed control at 33 µg/cm2 [9]: 100% | pest or weed control at 33 µg/cm2 [10]: 100% | pest or weed control at 33 µg/cm2 [11]: 55% | pest or weed control at 33 µg/cm2 [12]: 30% | Mite Control, % [13]: 100% | Mite Eggs Control, % [14]: 0%

N#Cc1ccc(N=c2ssnc2Cl)cc1 [Compound 23]
pest or weed control at 250 µg/mL [1]: 97% | Tomato Early Blight, % Control [2]: 90% | Celery Late Blight, % Control [16]: 63% | Mycelia Inhibition, for 99% control (A) [3]: > 1.7 micrograms/cm^2 | Mycelia Inhibition, for 99% control (B) [4]: 0.78 micrograms/cm^2 | Mycelia Inhibition, for 99% control (F) [5]: 1.4 micrograms/cm^2 | Mycelia Inhibition, for 99% control (R) [6]: 0.6 micrograms/cm^2

Cc1c(Cl)cccc1N=c1ssnc1Cl [Compound 21]
pest or weed control at 250 µg/mL [1]: 63% | Tomato Early Blight, % Control [2]: 44% | Powdery Mildew % Control [15]: 100% | Mycelia Inhibition, for 99% control (A) [3]: > 1.7 micrograms/cm^2 | Mycelia Inhibition, for 99% control (B) [4]: 1.3 micrograms/cm^2 | Mycelia Inhibition, for 99% control (F) [5]: > 1.7 micrograms/cm^2 | Mycelia Inhibition, for 99% control (R) [6]: 1.1 micrograms/cm^2 | pest or weed control at 33 µg/cm2 [7]: 0% | pest or weed control at 33 µg/cm2 [8]: 20% | pest or weed control at 33 µg/cm2 [9]: 45% | pest or weed control at 33 µg/cm2 [10]: 50% | pest or weed control at 33 µg/cm2 [11]: 15% | pest or weed control at 33 µg/cm2 [12]: 0% | Mite Control, % [13]: 90% | Mite Eggs Control, % [14]: 99%

O=[N+]([O-])c1ccc(Oc2cccc(N=c3ssnc3Cl)c2)cc1 [Compound 18]
Tomato Early Blight, % Control [2]: 44% | Celery Late Blight, % Control [16]: 64% | Mycelia Inhibition, for 99% control (A) [3]: > 1.7 micrograms/cm^2 | Mycelia Inhibition, for 99% control (B) [4]: > 1.7 micrograms/cm^2 | Mycelia Inhibition, for 99% control (F) [5]: > 1.7 micrograms/cm^2 | Mycelia Inhibition, for 99% control (R) [6]: 0.45 micrograms/cm^2

Cc1cc(Cl)ccc1N=c1ssnc1Cl [Compound 4, 4-chloro-5-(2-methyl-4-chlorophenylimino)-1,2,3-dithiazole]
percentage disease control (Botrytis cinerea) [17]: 92% | Powdery Mildew % Control [15]: 100% | Mycelia Inhibition, for 99% control (A) [3]: > 1.7 micrograms/cm^2 | Mycelia Inhibition, for 99% control (F) [5]: > 1.7 micrograms/cm^2 | Mycelia Inhibition, for 99% control (R) [6]: 0.63 micrograms/cm^2 | pest or weed control at 33 µg/cm2 [7]: 20% | pest or weed control at 33 µg/cm2 [8]: 85% | pest or weed control at 33 µg/cm2 [9]: 70% | pest or weed control at 33 µg/cm2 [10]: 70% | pest or weed control at 33 µg/cm2 [11]: 30% | pest or weed control at 33 µg/cm2 [12]: 20% | Mite Control, % [13]: 94% | Mite Eggs Control, % [14]: 100%

Fc1ccccc1N=c1ssnc1Cl [Compound 22]
Tomato Early Blight, % Control [2]: 50% | Celery Late Blight, % Control [16]: 80% | Mycelia Inhibition, for 99% control (A) [3]: 1.4 micrograms/cm^2 | Mycelia Inhibition, for 99% control (F) [5]: 1.3 micrograms/cm^2 | Mycelia Inhibition, for 99% control (R) [6]: 0.73 micrograms/cm^2 | pest or weed control at 33 µg/cm2 [7]: 0% | pest or weed control at 33 µg/cm2 [8]: 70% | pest or weed control at 33 µg/cm2 [9]: 85% | pest or weed control at 33 µg/cm2 [10]: 70% | pest or weed control at 33 µg/cm2 [11]: 20% | pest or weed control at 33 µg/cm2 [12]: 0% | Mite Control, % [13]: 0% | Mite Eggs Control, % [14]: 39%

Cc1ccc(Cl)cc1N=c1ssnc1Cl [Compound 28]
Powdery Mildew % Control [15]: 90% | pest or weed control at 33 µg/cm2 [7]: 20% | pest or weed control at 33 µg/cm2 [8]: 95% | pest or weed control at 33 µg/cm2 [9]: 100% | pest or weed control at 33 µg/cm2 [10]: 100% | pest or weed control at 33 µg/cm2 [11]: 65% | pest or weed control at 33 µg/cm2 [12]: 45% | Mite Control, % [13]: 85% | Mite Eggs Control, % [14]: 85%
